In patent publication US7041687B2, “Indazole compounds useful as protein kinase inhibitors” (Vertex Pharmaceuticals Incorporated, priority 2002, dated 2006):
Where “and” joins values, the source holds several entries; their conditions need not be identical. Identical values can stand only once.

Assays:
Assay type in all cases: biochemical
AKT-3 = AKT-3 (Homo sapiens, UniProt Q9Y243); experiment: AKT-3 inhibition assay (standard coupled enzyme assay); conditions: 170 μM ATP, 200 μM peptide, 45 nM AKT, 30° C.
AKT-3, sequence (Q9Y243 whole entry): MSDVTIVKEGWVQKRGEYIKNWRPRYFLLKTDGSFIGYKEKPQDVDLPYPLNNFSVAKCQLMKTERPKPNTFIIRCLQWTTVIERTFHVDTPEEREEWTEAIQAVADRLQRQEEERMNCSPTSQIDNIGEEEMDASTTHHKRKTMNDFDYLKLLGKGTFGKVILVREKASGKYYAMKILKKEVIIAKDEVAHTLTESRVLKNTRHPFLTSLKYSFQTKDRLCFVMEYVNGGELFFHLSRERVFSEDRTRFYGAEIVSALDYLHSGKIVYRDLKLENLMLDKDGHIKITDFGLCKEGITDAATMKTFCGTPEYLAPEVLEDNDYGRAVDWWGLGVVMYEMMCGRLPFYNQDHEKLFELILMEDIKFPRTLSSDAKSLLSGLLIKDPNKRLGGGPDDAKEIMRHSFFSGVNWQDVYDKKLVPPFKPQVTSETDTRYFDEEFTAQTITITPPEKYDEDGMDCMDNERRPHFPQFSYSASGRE

PKA = PKA (Homo sapiens, UniProt P17612); experiment: PKA inhibition assay (standard coupled enzyme assay); conditions: 50 μM ATP, 80 μM Kemptide, 18 nM PKA, 30° C.
Method: Compounds were screened for their ability to inhibit PKA using a standard coupled enzyme assay (Fox et al., Protein Sci., (1998) 7, 2249). Assays were carried out in a mixture of 100 mM HEPES 7.5, 10 mM MgCl2, 25 mM NaCl, 1 mM DTT and 3% DMSO. Final substrate concentrations in the assay were 50 μM ATP (Sigma Chemicals) and 80 μM peptide (Kemptide, American Peptide, Sunnyvale, Calif.). Assays were carried out at 30° C. and 18 nM PKA. Final concentrations of the components of the coupled enzyme system were 2.5 mM phosphoenolpyruvate, 300 μM NADH, 30 μg/ml pyruvate kinase and 10 μg/ml lactate dehydrogenase.
An assay stock buffer solution was prepared containing all of the reagents listed above, with the exception of ATP, and the test compound of interest. 55 μl of the stock solution was placed in a 96 well plate followed by addition of 2 μl of DMSO stock containing serial dilutions of the test compound (typically starting from a final concentration of 5 μM). The plate was preincubated for 10 minutes at 30° C. and the reaction initiated by addition of 5 μl of ATP (final concentration 50 μM). Initial reaction rates were determined with a Molecular Devices SpectraMax Plus plate reader over a 15 minute time course. IC50 and Ki data were calculated from non-linear regression analysis using the Prism software package (GraphPad Prism version 3.0a for Macintosh, GraphPad Software, San Diego Calif., USA).

PDK-1 = molecular target: T1, PDK-1 (Homo sapiens, UniProt O15530); experiment: PDK-1 inhibition assay (radioactive-phosphate incorporation); conditions: 40 μM ATP, 65 μM PDKtide, 25 nM PDK-1, 30° C.
T1 sequence (O15530 1-556): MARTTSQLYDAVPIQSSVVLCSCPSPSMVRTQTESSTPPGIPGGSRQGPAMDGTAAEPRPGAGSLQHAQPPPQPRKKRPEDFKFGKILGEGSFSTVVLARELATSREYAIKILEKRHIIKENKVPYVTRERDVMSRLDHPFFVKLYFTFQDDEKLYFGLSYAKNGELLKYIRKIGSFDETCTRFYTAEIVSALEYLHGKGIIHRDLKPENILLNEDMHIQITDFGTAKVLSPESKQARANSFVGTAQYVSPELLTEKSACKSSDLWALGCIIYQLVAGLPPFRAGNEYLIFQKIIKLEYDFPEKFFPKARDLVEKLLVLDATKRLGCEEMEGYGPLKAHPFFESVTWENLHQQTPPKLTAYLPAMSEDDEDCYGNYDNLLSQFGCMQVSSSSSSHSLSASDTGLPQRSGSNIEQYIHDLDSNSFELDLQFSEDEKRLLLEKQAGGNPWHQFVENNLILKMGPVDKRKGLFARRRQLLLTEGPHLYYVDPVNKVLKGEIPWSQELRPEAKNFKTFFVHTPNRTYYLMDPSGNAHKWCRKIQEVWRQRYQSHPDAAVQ

Row | SMILES | Ki (AKT-3) | Ki (PKA) | Ki (PDK-1)
1 | O=C(Cc1cccc(C(F)(F)F)c1)Nc1ccc2[nH]ncc2c1 [Compound I-2] | 10 to 20 µM | < 1 µM | –
2 | O=C(Cc1cccc(Cl)c1)Nc1ccc2[nH]ncc2c1 [Compound I-6, 2-(3-Chloro-phenyl)-N-(1H-indazol-5-yl)-acetamide] | – | 1 to 5 µM | –
3 | O=C(Cc1c[nH]c2ccccc12)Nc1ccc2[nH]ncc2c1 [Compound I-24] | – | 1 to 5 µM | –
4 | O=C(Nc1ccc2[nH]ncc2c1)C(O)c1ccc(Cl)cc1 (stereo not shown) [Compound I-35] | 1 to 10 µM | < 1 µM | –
5 | NCCNC(C(=O)Nc1ccc2[nH]ncc2c1)c1ccc(Cl)c(Cl)c1 (stereo not shown) [Compound I-69] | – | < 1 µM | –
6 | O=C(CCCc1ccccc1)Nc1ccc2[nH]ncc2c1 [Compound I-92] | – | 1 to 5 µM | –
7 | O=C(Cc1cccc(Cl)c1F)Nc1ccc2[nH]ncc2c1 [Compound I-93] | – | < 1 µM | –
8 | Cc1n[nH]c2ccc(NC(=O)C(CCN)c3cccc(CC(C)C)c3)cc12 (stereo not shown) [Compound I-142] | 1 to 10 µM | – | > 3 µM
9 | NCCC(C(=O)Nc1ccc2[nH]nc(NC(=O)c3ccc4ccccc4c3)c2c1)c1ccc(Cl)c(Cl)c1 (stereo not shown) [Compound I-170] | < 1 µM | – | 1 to 3 µM
10 | NCCC(C(=O)Nc1ccc2[nH]nc(NC(=O)c3ccc4c(c3)OCO4)c2c1)c1ccc(Cl)c(Cl)c1 (stereo not shown) [Compound I-171] | < 1 µM | – | < 1 µM
11 | NCCC(C(=O)Nc1ccc2[nH]nc(NC(=O)Nc3cccc(Cl)c3)c2c1)c1ccc(Cl)c(Cl)c1 (stereo not shown) [Compound I-173] | < 1 µM | – | < 1 µM
12 | NCCC(C(=O)Nc1ccc2[nH]nc(NC(=O)Nc3ccccc3)c2c1)c1ccc(Cl)c(Cl)c1 (stereo not shown) [Compound I-176] | 1 to 10 µM | – | 1 to 3 µM
13 | NCCC(C(=O)Nc1ccc2[nH]nc(NS(=O)(=O)c3cccc(Cl)c3)c2c1)c1ccc(Cl)c(Cl)c1 (stereo not shown) [Compound I-191] | 1 to 10 µM | – | > 3 µM
14 | Cc1cccc(Nc2n[nH]c3ccc(NC(=O)C(CCN)c4ccc(Cl)c(Cl)c4)cc23)c1 (stereo not shown) [Compound I-212] | < 1 µM | – | 1 to 3 µM
15 | CC(C)c1cccc(-c2n[nH]c3ccc(NC(=O)C(CCN)c4ccc(Cl)c(Cl)c4)cc23)c1 (stereo not shown) [Compound I-222] | < 1 µM | – | > 3 µM
16 | NCCC(C(=O)Nc1ccc2[nH]nc(-c3cccc(C(=O)O)c3)c2c1)c1ccccc1 (stereo not shown) [Compound I-246] | – | < 1 µM | –
17 | CC(=O)c1ccc(-c2n[nH]c3ccc(NC(=O)C(CCN)c4ccccc4)cc23)cc1 (stereo not shown) [Compound I-250] | 1 to 10 µM | – | < 1 µM
18 | NCC(C(=O)Nc1ccc2[nH]ncc2c1)c1cccc(Cl)c1F (stereo not shown) [Compound I-257] | < 1 µM | – | > 3 µM
19 | NCC(C(=O)Nc1ccc2[nH]ncc2c1)c1ccc(Cl)cc1F (stereo not shown) [Compound I-258] | < 1 µM | – | > 3 µM
20 | COc1ccccc1C(CCN)C(=O)Nc1ccc2[nH]ncc2c1 (stereo not shown) [Compound I-1005] | < 1 µM | – | 1 to 3 µM
21 | O=C(CCC(C(=O)O)c1ccccc1)Nc1ccc2[nH]ncc2c1 (stereo not shown) [Compound I-1014] | < 1 µM | – | > 3 µM
22 | COc1cccc(C(CCN)C(=O)Nc2ccc3[nH]nc(C)c3c2)c1 (stereo not shown) [Compound I-1018] | 1 to 10 µM | – | 1 to 3 µM
23 | N#Cc1cccc(Nc2n[nH]c3ccc(NC(=O)[C@@H](CCN)c4c(F)ccc(Cl)c4F)cc23)c1 [Compound I-1048] | 1 to 10 µM | – | < 1 µM
24 | NCC[C@@H](C(=O)Nc1ccc2[nH]nc(NC(=O)c3cccs3)c2c1)c1ccccc1 [Compound I-1049] | < 1 µM | – | < 1 µM
25 | NCCC(C(=O)Nc1ccc2[nH]nc(NC(=O)C3CCCCC3)c2c1)c1ccccc1 (stereo not shown) [Compound I-1050] | 1 to 10 µM | – | > 3 µM
26 | NCCC(C(=O)Nc1ccc2[nH]nc(NC(=O)COc3ccccc3)c2c1)c1ccccc1 (stereo not shown) [Compound I-1051] | 1 to 10 µM | – | > 3 µM
27 | N#Cc1cccc(Nc2n[nH]c3ccc(NC(=O)[C@H](CCN)c4ccccc4)cc23)c1 [Compound I-1054] | < 1 µM | – | 1 to 3 µM and > 3 µM
28 | N#Cc1cccc(Nc2n[nH]c3ccc(NC(=O)[C@@H](CCN)c4ccccc4)cc23)c1 [Compound I-1055] | 1 to 10 µM | – | 1 to 3 µM
29 | NCC[C@H](C(=O)Nc1ccc2[nH]nc(-c3ccccc3)c2c1)c1c(F)ccc(Cl)c1F [Compound I-1057] | 10 to 20 µM | – | < 1 µM

Next, values leading:

Row | Ki (AKT-3) | Ki (PKA) | Ki (PDK-1) | SMILES
30 | 1 to 10 µM | < 1 µM | – | O=C(Nc1ccc2[nH]ncc2c1)[C@H](O)c1cccc(Cl)c1 [Compound I-40]
31 | 1 to 10 µM | < 1 µM | – | O=C(Nc1ccc2[nH]ncc2c1)C(O)c1cc(F)cc(F)c1 (stereo not shown) [Compound I-43]
32 | – | 1 to 5 µM | – | O=C(Nc1ccc2[nH]ncc2c1)C(CO)c1ccccc1 (stereo not shown) [Compound I-84]
33 | – | < 1 µM | – | O=C(Nc1ccc2[nH]ncc2c1)C(CO)c1ccc(F)c(Cl)c1 (stereo not shown) [Compound I-85]
34 | 1 to 10 µM | – | 1 to 3 µM | Cc1cccn(C(CCN)C(=O)Nc2ccc3[nH]nc(C)c3c2)c1=O (stereo not shown) [Compound I-137]
35 | 1 to 10 µM | – | > 3 µM | NCCC(C(=O)Nc1cc(-c2ccccc2)c2[nH]ncc2c1)c1ccc(Cl)c(Cl)c1 (stereo not shown) [Compound I-150]
36 | 1 to 10 µM | – | > 3 µM | NCCC(SCc1ccccc1)C(=O)Nc1ccc2[nH]ncc2c1 (stereo not shown) [Compound I-154]
37 | 10 to 20 µM | – | > 3 µM | NCCC(C(=O)Nc1ccc2[nH]nc(NS(=O)(=O)c3ccccc3)c2c1)c1ccc(Cl)c(Cl)c1 (stereo not shown) [Compound I-190]
38 | < 1 µM | – | 1 to 3 µM | NCCC(C(=O)Nc1ccc2[nH]nc(Nc3cccc(F)c3)c2c1)c1ccc(Cl)c(Cl)c1 (stereo not shown) [Compound I-213]
39 | 1 to 10 µM | – | < 1 µM | NCCC(C(=O)Nc1ccc2[nH]nc(-c3cccc(Cl)c3)c2c1)c1ccccc1 (stereo not shown) [Compound I-241]
40 | – | < 1 µM | – | COC(=O)c1cccc(-c2n[nH]c3ccc(NC(=O)C(CCN)c4ccccc4)cc23)c1 (stereo not shown) [Compound I-244]
41 | < 1 µM | – | < 1 µM | Cc1cccc(-c2n[nH]c3ccc(NC(=O)C(CCN)c4ccc(Cl)c(Cl)c4)cc23)c1 (stereo not shown) [Compound I-251]
42 | < 1 µM | – | < 1 µM | NCCC(C(=O)Nc1ccc2[nH]nc(-c3cccc(Cl)c3)c2c1)c1ccc(Cl)c(Cl)c1 (stereo not shown) [Compound I-253]
43 | 1 to 10 µM | – | < 1 µM | N#Cc1ccc(-c2n[nH]c3ccc(NC(=O)C(CCN)c4ccccc4)cc23)cc1 (stereo not shown) [Compound I-259]
44 | 1 to 10 µM | – | 1 to 3 µM | Cc1cccc(Nc2n[nH]c3ccc(NC(=O)C(CCN)c4ccccc4)cc23)c1 (stereo not shown) [Compound I-1038]
45 | 10 to 20 µM | – | 1 to 3 µM | NCCC(C(=O)Nc1ccc2[nH]nc(C(=O)Nc3ccccc3)c2c1)c1ccccc1 (stereo not shown) [Compound I-1040]
46 | < 1 µM | – | < 1 µM | NCC[C@@H](C(=O)Nc1ccc2[nH]nc(NC(=O)c3cccs3)c2c1)c1c(F)ccc(Cl)c1F [Compound I-1045]
47 | < 1 µM | – | < 1 µM | NCC[C@H](C(=O)Nc1ccc2[nH]nc(NC(=O)c3cccs3)c2c1)c1c(F)ccc(Cl)c1F [Compound I-1046]
48 | < 1 µM | – | > 3 µM | N#Cc1cccc(Nc2n[nH]c3ccc(NC(=O)[C@H](CCN)c4c(F)ccc(Cl)c4F)cc23)c1 [Compound I-1047]
49 | 1 to 10 µM | – | < 1 µM | NCC[C@@H](C(=O)Nc1ccc2[nH]nc(-c3ccccc3)c2c1)c1ccccc1 [Compound I-1052]
50 | 1 to 10 µM | – | < 1 µM | NCC[C@@H](C(=O)Nc1ccc2[nH]nc(-c3ccccc3)c2c1)c1c(F)ccc(Cl)c1F [Compound I-1056]
